Structures can show the parent of a compound that is named as a salt.
Tested on: not given
Assay: not given
Conditions: not given
`c1cc2c(c(Cc3ccc4[nH]ccc4c3)c1)CNCC2` showed a melting point of 173 to 174 °C.
With `CNCCc1ccccc1Cc1ccc2[nH]ccc2c1` the melting point was 95 to 97 °C.
`c1cc2c(c(Cc3ccc4[nH]ccc4c3)c1)CCNC2` showed a melting point of 194 to 195 °C.
For `CNCc1cc(N2CCOCC2)ccc1Cc1ccc2[nH]ccc2c1` (as salt: fumarate) [Compound 39, [2-(1H-Indol-5-ylmethyl)-5-morpholin-4-yl-benzyl]-methyl-amine], the melting point was 135 to 136 °C.
For `CNCc1ccccc1Cc1ccc2[nH]c(S(C)(=O)=O)cc2c1` (as salt: fumarate) [Compound 49, [2-(2-Methanesulfonyl-1H-indol-5-ylmethyl)-benzyl]-methyl-amine], the melting point was 179 to 180 °C.
For `CNCc1ccccc1Cc1ccc2[nH]ccc2c1` (as salt: hydrochloride) [Compound 1, [2-(1H-Indol-5-ylmethyl)-benzyl]-methyl-amine], the melting point was 198 to 199 °C.
`CNCc1ccccc1Cc1ccc2cc[nH]c2c1` [Compound 15, [2-(1H-Indol-6-ylmethyl)-benzyl]-methyl-amine] gave a melting point of 132 °C.
For `CNCc1ccccc1Cc1cccc2[nH]ccc12` [Compound 16, [2-(1H-Indol-4-ylmethyl)-benzyl]-methyl-amine], the melting point was 111 to 112 °C.
Compound `c1ccc(CN2CCC2)c(Cc2ccc3[nH]ccc3c2)c1` [Compound 18, 5-(2-Azetidin-1-ylmethyl-benzyl)-1H-indole] has a melting point of 128 to 130 °C.
Compound `CNCc1cc(F)ccc1Cc1ccc2[nH]ccc2c1` [Compound 20, [5-Fluoro-2-(1H-indol-5-ylmethyl)-benzyl]-methyl-amine] has a melting point of 162 to 163 °C.
Work on `OCCNCc1ccccc1Cc1ccc2[nH]ccc2c1` [Compound 21, 2-[2-(1H-Indol-5-ylmethyl)-benzylamino]-ethanol] yielded a melting point of 117 to 118 °C.
`CNCc1ccccc1C(O)c1ccc2[nH]ccc2c1` (stereo not drawn) [Compound 24, (1H-Indol-5-yl)-(2-methylaminomethyl-phenyl)-methanol] gave a melting point of 75 to 78 °C.
Work on `c1ccc(Cn2ccnc2)c(Cc2ccc3[nH]ccc3c2)c1` [Compound 25, 5-(2-Imidazol-1-ylmethyl-benzyl)-1H-indole] yielded a melting point of 61 to 67 °C.
For `CNCc1cc(Cl)ccc1Cc1ccc2[nH]ccc2c1` [Compound 27, [5-Chloro-2-(1H-indol-5-ylmethyl)-benzyl]-methyl-amine], the melting point was 164 to 165 °C.
`CNCc1ccccc1Cc1ccc2[nH]cc(C#N)c2c1` [Compound 29, 5-(2-Methylaminomethyl-benzyl)-1H-indole-3-carbonitrile] showed a melting point of 179 to 180 °C.
`CNCc1cccc(Cc2ccc3[nH]ccc3c2)c1` [Compound 32, [3-(1H-Indol-5-ylmethyl)-benzyl]-methyl-amine] gave a melting point of 153 °C.
`CNCc1ccc(OC)cc1Cc1ccc2[nH]ccc2c1` [Compound 33, [2-(1H-Indol-5-ylmethyl)-4-methoxy-benzyl]-methyl-amine] showed a melting point of 157 to 158 °C.
Compound `CNCc1cc(OC)ccc1Cc1ccc2[nH]ccc2c1` [Compound 34, [2-(1H-Indol-5-ylmethyl)-5-methoxy-benzyl]-methyl-amine] has a melting point of 155 to 156 °C.
In the case of `CNCc1cc(C#N)ccc1Cc1ccc2[nH]ccc2c1` [Compound 38, 4-(1H-Indol-5-ylmethyl)-3-methylaminomethyl-benzonitrile], the melting point is reported as 144 to 145 °C.
Work on `CNCc1cc(NS(C)(=O)=O)ccc1Cc1ccc2[nH]ccc2c1` [Compound 41, N-[4-(1H-Indol-5-ylmethyl)-3-methylaminomethyl-phenyl]-methanesulfonamide] yielded a melting point of 125 to 126 °C.
For `O=C1CNCCN1c1ccccc1Cc1ccc2[nH]ccc2c1` [Compound 42, 1-[2-(1H-Indol-5-ylmethyl)-phenyl]-piperazin-2-one], the melting point was 100 to 102 °C.
For `CNCc1ccc(C#N)cc1Cc1ccc2[nH]ccc2c1` [Compound 43, 3-(1H-Indol-5-ylmethyl)-4-methylaminomethyl-benzonitrile], the melting point was 160 to 163 °C.
Work on `CNCc1ccc(C(N)=O)cc1Cc1ccc2[nH]ccc2c1` [Compound 44, 3-(1H-Indol-5-ylmethyl)-4-methylaminomethyl-benzamide] yielded a melting point of 97 to 100 °C.
`CNCc1scnc1Cc1ccc2[nH]ccc2c1` [Compound 45, [4-(1H-Indol-5-ylmethyl)-thiazol-5-ylmethyl]-methyl-amine] gave a melting point of 152 to 153 °C.
Compound `NCC(O)c1ccccc1Cc1ccc2[nH]ccc2c1` (stereo not drawn) [Compound 47, 2-Amino-1-[2-(1H-indol-5-ylmethyl)-phenyl]-ethanol] has a melting point of 70 to 72 °C.
`c1ccc(N2CCOCC2)c(Cc2ccc3[nH]ccc3c2)c1` [Compound 48, 5-(2-Morpholin-4-yl-benzyl)-1H-indole] showed a melting point of 189 to 190 °C.

Target: T1, human serotonin transporter (hSERT) (Homo sapiens, UniProt P31645)
T1 construct: expressed in transfected cells; Tatsumi et al. 1997), membrane preparation
T1 sequence (P31645 whole entry): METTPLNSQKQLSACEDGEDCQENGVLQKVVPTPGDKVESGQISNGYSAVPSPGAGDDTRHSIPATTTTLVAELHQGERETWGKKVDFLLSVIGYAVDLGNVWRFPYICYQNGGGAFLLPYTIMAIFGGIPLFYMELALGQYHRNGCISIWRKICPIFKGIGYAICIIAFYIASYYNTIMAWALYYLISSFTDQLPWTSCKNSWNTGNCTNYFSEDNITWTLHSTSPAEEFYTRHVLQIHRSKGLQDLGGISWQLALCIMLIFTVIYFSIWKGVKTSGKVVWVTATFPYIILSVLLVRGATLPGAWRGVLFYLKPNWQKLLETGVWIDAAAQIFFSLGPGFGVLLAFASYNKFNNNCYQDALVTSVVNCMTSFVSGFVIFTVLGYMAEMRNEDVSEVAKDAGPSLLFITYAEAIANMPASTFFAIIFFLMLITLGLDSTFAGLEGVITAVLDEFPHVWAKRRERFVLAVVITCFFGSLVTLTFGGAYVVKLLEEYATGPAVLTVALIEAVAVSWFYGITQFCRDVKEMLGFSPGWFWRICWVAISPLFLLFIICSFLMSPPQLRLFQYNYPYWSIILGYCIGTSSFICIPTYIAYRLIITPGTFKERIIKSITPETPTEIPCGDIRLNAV
Assay: Screening for human serotonin transporter (hSERT) antagonists, scintillation proximity assay, competition with [3H]-Citalopram
Assay type: binding
Conditions: membranes of HEK-293 cells, SPA
Protocol: The screening assay of this example was used to determine the affinity of ligands at the hSERT transporter by competition with [^3H]-Citalopram.
Scintillation Proximity Assay (SPA) works by bringing radioligand within close proximity to the bead's scintillant to stimulate light emission. In this assay, the receptor-containing membranes were pre-coupled to the SPA beads and the binding of the appropriate radioligand to the transporter was measured. The light emission was proportional to the amount of bound radioligand. Unbound radioligand produced no signal as a result of distant proximity to scintillant (lack of energy transfer). […]
Cell membranes were prepared using a membrane preparation buffer of 50 mM TRIS (pH 7.4). […] After a second centrifugation, the pellet was re-homogenized and brought to a final volume determined during the assay. […]
The % inhibition was calculated for each compound tested [(Compound counts per minute (CPM) at maximum concentration-Non-Specific CPM)/Total CPM*100]. […]
[formula] where max=total binding, min=non specific binding, x=concentration (M) of the tested compound and n=Hill slope. The inhibition dissociation constant (Ki) of each compound was determined according to the method of Cheng-Prusoff and then converted into negative logarithm (pKi) of the Ki.
Compound `CNCc1ccccc1Cc1ccc2[nH]cc(C#N)c2c1` [Compound 29, 5-(2-Methylaminomethyl-benzyl)-1H-indole-3-carbonitrile] has a Ki of roughly 0.1 nM.

Source: patent US8198274B2, “Substituted indolyl and indazolyl derivatives and uses thereof” (Roche Palo Alto LLC, priority 2008, dated 2012)
